# Reference: US6064908A, “Device for ionophoresis comprising at least a membrane electrode assembly, for the transcutaneous administration of active principles to a subject” (Elf Aquitaine, priority 1996, dated 2000)
# Assay: administration of pentasaccharide sodium salt in mini pigs by iontophoresis at set current density; antifactor Xa plasma levels
# Format: in vivo, mini pigs of the YUCATAN strain
# Experimental: Administration in mini pigs of pentasaccharide sodium salt by iontophoresis at a set current density.
# Specialists consider mini pigs of the YUCATAN strain to be an excellent animal model for studying the administration in man of medicaments by iontophoresis. This is because the skin structure of this animal is very similar to that of human skin.
# The following tests were carried out on the aforementioned mini pig with the aim of comparing the administration by iontophoresis of the sodium salt of the pentasaccharide used in Example 1 with administration by subcutaneous injection.
# For these tests, pairs of adhesive electrode assemblies were formed, each pair comprising a donor electrode assembly, equipped with a reversible negative electrode (active electrode) and containing the pentasaccharide to be administered, and a passive electrode assembly formed by a positive electrode (back electrode) in contact with a second reservoir element containing an arbitrary (i.e. indifferent) electrolyte.
# In the donor electrode assembly according to the invention, as well as in the reference donor assembly, the electrode 6 made of chloridized silver contained a quantity of silver chloride equivalent to 1.8 mAh/cm^2, thus allowing the electrode to sustain the quantity of electricity flowing through the electrodes over the duration of the iontophoretic treatment, namely 0.88 mAh/cm^2.
# The primary electrolyte medium constituting the primary reservoir element 11 of the donor electrode assembly according to the invention, as well as the conducting, absorbent, porous material forming the reservoir element 11 of the reference electrode assembly, each consisted of a sheet of blotting paper made of cellulose fibres supplemented by polypropylene fibrils, having a surface area of 20 cm^2 and a thickness of 0.5 mm and being impregnated, to a level of 50 mg/cm^2, with an aqueous solution containing 2% by weight of pentasaccharide. Each reservoir element 11 contained in total 1 g of solution, i.e. 20 mg of pentasaccharide over 20 cm^2 of active surface (1 mg/cm^2). 20 mg of pentasaccharide were therefore employed in total per animal.
# The selectively permeable membrane separating the recesses 2 and 15 of the donor electrode assembly according to the invention, that is to say separating the primary 11 and secondary 20 reservoir elements of the said electrode assembly, consisted of a 50 μm thick film of the polyether block amide PEBAX MV 1041 defined in Example 1.
# In each passive electrode assembly, the positive electrode (back electrode) made of chloridized silver contained a quantity of silver chloride equivalent to 0.1 mAh/cm^2 and the reservoir element associated with this electrode consisted of a sheet of blotting paper made of cellulose fibres supplemented by polypropylene fibrils having a surface area of 20 cm^2 and a thickness of 0.5 mm and was impregnated with an aqueous solution of NaCl to contain 6% by weight of this salt.
# An electric signal generator which could be connected to the electrodes of each pair of electrode assemblies, made it possible to deliver a continuous electric signal of controlled intensity between the said electrodes.
# Five days before each test, the animals were catheterized in the two jugulars, as is well known for any experimentation in medicament administration, in order to make it possible to take regular blood samples intended for assaying the antifactor Xa activities and thereby to evaluate the quantities of active principle that pass through the skin to enter the circulatory system and therefore to check the effectiveness of the iontophoretic treatment.
# The animals, fasted from the day before the experiments, were placed in specialized hammocks. […]
structure (smiles),measurement,setting,value
O=C(O)C1OC(OC2C(COS(=O)(=O)O)OC(OC3C(C(=O)O)OC(OC4C(COS(=O)(=O)O)OC(O)C(NS(=O)(=O)O)C4O)C(OS(=O)(=O)O)C3O)C(NS(=O)(=O)O)C2OS(=O)(=O)O)C(O)C(O)C1OC1OC(COS(=O)(=O)O)C(O)C(O)C1NS(=O)(=O)O (stereo not drawn) [pentasaccharide],bioavailability for the in-vivo tests vs in-vitro utilization factors,Example 2 vs Example 1,higher than the utilization factors which were obtained for the in-vitro tests
same,Bioavailability,"Test 2a: passive, no current",0%
same,"plasma level, Antifactor Xa","Test 2a: passive, no current, 0 h",0 units/ml
same,"plasma level, Antifactor Xa","Test 2a: passive, no current, 0.25 h",0 units/ml
same,"plasma level, Antifactor Xa","Test 2a: passive, no current, 0.50 h",0 units/ml
same,"plasma level, Antifactor Xa","Test 2a: passive, no current, 1.00 h",0 units/ml
same,"plasma level, Antifactor Xa","Test 2a: passive, no current, 2.00 h",0 units/ml
same,"plasma level, Antifactor Xa","Test 2a: passive, no current, 4.00 h",0 units/ml
same,"plasma level, Antifactor Xa","Test 2a: passive, no current, 6.00 h",0 units/ml
same,"plasma level, Antifactor Xa","Test 2a: passive, no current, 8.00 h",0 units/ml
same,"plasma level, Antifactor Xa","Test 2a: passive, no current, 10.00 h",0 units/ml
same,"plasma level, Antifactor Xa","Test 2a: passive, no current, 16.00 h",0 units/ml
same,"plasma level, Antifactor Xa","Test 2a: passive, no current, 24.00 h",0 units/ml
same,"plasma level, Antifactor Xa","Test 2a: passive, no current, 30.00 h",0 units/ml
same,"plasma levels (antifactor Xa), invention vs reference iontophoresis",Test 2b vs Test 2c,more than three times higher
same,"plasma level, Antifactor Xa","Test 2b: iontophoresis, PEBAX MV 1041 membrane, 20 mg, 8 hours",1 units/ml
same,"plasma level, Antifactor Xa","Test 2b: iontophoresis, PEBAX MV 1041 membrane, 20 mg, 8 hours, 0 h",0 units/ml
same,"plasma level, Antifactor Xa","Test 2b: iontophoresis, PEBAX MV 1041 membrane, 20 mg, 8 hours, 0.25 h",0.07 units/ml
same,"plasma level, Antifactor Xa","Test 2b: iontophoresis, PEBAX MV 1041 membrane, 20 mg, 8 hours, 0.50 h",0.14 units/ml
same,"plasma level, Antifactor Xa","Test 2b: iontophoresis, PEBAX MV 1041 membrane, 20 mg, 8 hours, 1.00 h",0.36 units/ml
same,"plasma level, Antifactor Xa","Test 2b: iontophoresis, PEBAX MV 1041 membrane, 20 mg, 8 hours, 2.00 h",0.81 units/ml
same,"plasma level, Antifactor Xa","Test 2b: iontophoresis, PEBAX MV 1041 membrane, 20 mg, 8 hours, 4.00 h",1.3 units/ml
same,"plasma level, Antifactor Xa","Test 2b: iontophoresis, PEBAX MV 1041 membrane, 20 mg, 8 hours, 6.00 h",0.98 units/ml
same,"plasma level, Antifactor Xa","Test 2b: iontophoresis, PEBAX MV 1041 membrane, 20 mg, 8 hours, 10.00 h",0.79 units/ml
same,"plasma level, Antifactor Xa","Test 2b: iontophoresis, PEBAX MV 1041 membrane, 20 mg, 8 hours, 16.00 h",0.38 units/ml
same,"plasma level, Antifactor Xa","Test 2b: iontophoresis, PEBAX MV 1041 membrane, 20 mg, 8 hours, 24.00 h",0.12 units/ml
same,"plasma level, Antifactor Xa","Test 2b: iontophoresis, PEBAX MV 1041 membrane, 20 mg, 8 hours, 30.00 h",0.04 units/ml
same,"plasma level, Antifactor Xa","Test 2b: iontophoresis, PEBAX MV 1041 membrane, 20 mg, 8 hours, […]",0.61 units/ml
same,"plasma level, Antifactor Xa","Test 2c: reference iontophoresis, no membrane, 20 mg, 8 hours",0.35 units/ml
same,"plasma level, Antifactor Xa","Test 2c: reference iontophoresis, no membrane, 20 mg, 8 hours, 0 h",0 units/ml
same,"plasma level, Antifactor Xa","Test 2c: reference iontophoresis, no membrane, 20 mg, 8 hours, 0.25 h",0.03 units/ml
same,"plasma level, Antifactor Xa","Test 2c: reference iontophoresis, no membrane, 20 mg, 8 hours, 0.50 h",0.05 units/ml
same,"plasma level, Antifactor Xa","Test 2c: reference iontophoresis, no membrane, 20 mg, 8 hours, 1.00 h",0.09 units/ml
same,"plasma level, Antifactor Xa","Test 2c: reference iontophoresis, no membrane, 20 mg, 8 hours, 2.00 h",0.13 units/ml
same,"plasma level, Antifactor Xa","Test 2c: reference iontophoresis, no membrane, 20 mg, 8 hours, 4.00 h",0.27 units/ml
same,"plasma level, Antifactor Xa","Test 2c: reference iontophoresis, no membrane, 20 mg, 8 hours, 6.00 h",0.29 units/ml
same,"plasma level, Antifactor Xa","Test 2c: reference iontophoresis, no membrane, 20 mg, 8 hours, 10.00 h",0.34 units/ml
same,"plasma level, Antifactor Xa","Test 2c: reference iontophoresis, no membrane, 20 mg, 8 hours, 16.00 h",0.11 units/ml
same,"plasma level, Antifactor Xa","Test 2c: reference iontophoresis, no membrane, 20 mg, 8 hours, 24.00 h",0.08 units/ml
same,"plasma level, Antifactor Xa","Test 2c: reference iontophoresis, no membrane, 20 mg, 8 hours, 30.00 h",0.01 units/ml
same,"plasma level, Antifactor Xa","Test 2c: reference iontophoresis, no membrane, 20 mg, 8 hours, […]",0.14 units/ml
same,"plasma level, Antifactor Xa","Test 2d: subcutaneous injection 0.200 mg/kg, 0 h",0 units/ml
same,"plasma level, Antifactor Xa","Test 2d: subcutaneous injection 0.200 mg/kg, 0.25 h",0.11 units/ml
same,"plasma level, Antifactor Xa","Test 2d: subcutaneous injection 0.200 mg/kg, 0.50 h",0.13 units/ml
same,"plasma level, Antifactor Xa","Test 2d: subcutaneous injection 0.200 mg/kg, 1.00 h",0.17 units/ml
same,"plasma level, Antifactor Xa","Test 2d: subcutaneous injection 0.200 mg/kg, 2.00 h",0.22 units/ml
same,"plasma level, Antifactor Xa","Test 2d: subcutaneous injection 0.200 mg/kg, 4.00 h",0.26 units/ml
same,"plasma level, Antifactor Xa","Test 2d: subcutaneous injection 0.200 mg/kg, 6.00 h",0.24 units/ml
same,"plasma level, Antifactor Xa","Test 2d: subcutaneous injection 0.200 mg/kg, 8.00 h",0.15 units/ml
same,"plasma level, Antifactor Xa","Test 2d: subcutaneous injection 0.200 mg/kg, 10.00 h",0.12 units/ml
same,"plasma level, Antifactor Xa","Test 2d: subcutaneous injection 0.200 mg/kg, 16.00 h",0.06 units/ml
same,"plasma level, Antifactor Xa","Test 2d: subcutaneous injection 0.200 mg/kg, 24.00 h",0.00 units/ml
same,"plasma level, Antifactor Xa","Test 2d: subcutaneous injection 0.200 mg/kg, 30.00 h",0.00 units/ml
same,"plasma level, Antifactor Xa","Test 2d: subcutaneous injection 0.200 mg/kg, […]",0.06 units/ml
